The subject of test [1] is BMSC (primary human bone marrow mesenchymal stromal cells). As to the kind of experiment: drug sensitivity score (DSS); higher = more sensitive.
Test [2] has the same test system. As to the kind of experiment: absolute EC50 for viability; higher = less sensitive.

Experimental findings from the supplement of paper PMC9103864 are described below.

SMILES strings stand for the structures.

Molecule `COc1ccc(-c2nc(N3CCOCC3)c3sc(CN(C)c4ncc(C(=O)NO)cn4)cc3n2)cn1` [CUDC-907] gave a drug sensitivity score in test [1] of 24.6. Also, the “absolute EC50 for viability” value in test [2] was determined as 64.9 nM.

With `CCN1CCN(c2ccc(Nc3cc(N(C)C(=O)Nc4c(Cl)c(OC)cc(OC)c4Cl)ncn3)cc2)CC1` [Infigratinib], the drug sensitivity score in test [1] was 0. For the same molecule, the “absolute EC50 for viability” value in test [2] was over 1000 nM.

Molecule `CNC(=O)c1ccc(-c2cnc3ncc(Cc4ccc5ncccc5c4)n3n2)cc1F` [Capmatinib] displayed a drug sensitivity score in test [1] of 0.5. Moreover, the “absolute EC50 for viability” value in test [2] was over 1000 nM.

Molecule `COc1cc(Nc2ncc(F)c(Nc3ccc4c(n3)NC(=O)C(C)(C)O4)n2)cc(OC)c1OC` [Tamatinib] displayed a drug sensitivity score in test [1] of 4.2. In addition, the “absolute EC50 for viability” value in test [2] was over 10000 nM.

In turn, `CCc1cnn2c(NCc3ccc[n+]([O-])c3)cc(N3CCCC[C@H]3CCO)nc12` [Dinaciclib] had a drug sensitivity score in test [1] of 8.1. Further, the “absolute EC50 for viability” value in test [2] is over 1000 nM.

On to `CC(C)NC(=O)COc1cccc(-c2nc(Nc3ccc4[nH]ncc4c3)c3ccccc3n2)c1` [KD025], for which the drug sensitivity score in test [1] came out at 0. Further, the “absolute EC50 for viability” value in test [2] was over 5000 nM.

`NCC(=O)Nc1ccc(-n2nc(C(F)(F)F)cc2-c2ccc3c(ccc4ccccc43)c2)cc1`: the drug sensitivity score in test [1] was 0.5. Further, the “absolute EC50 for viability” value in test [2] is over 25000 nM.

On to `CCC1=C[C@@H]2CN(C1)Cc1c([nH]c3ccccc13)[C@@](C(=O)OC)(c1cc3c(cc1OC)N(C)[C@H]1[C@@](O)(C(=O)OC)[C@H](OC(C)=O)[C@]4(CC)C=CCN5CC[C@]31[C@@H]54)C2` [Vinorelbine], for which the drug sensitivity score in test [1] came out at 16.5. In test [2], the “absolute EC50 for viability” value came to 1120 nM.

Take `CCn1c(C(=O)N(C2CC2)C2CC2)cc2c3c(ncn3C)c(Nc3cc(C)n(C)n3)nc21`: in test [1], the drug sensitivity score is 1. Also, in test [2], the “absolute EC50 for viability” value is over 10000 nM.

With `O=C(Nc1cnn2ccc(N3CCC[C@@H]3c3cc(F)ccc3F)nc12)N1CC[C@H](O)C1` [Larotrectinib], in test [1], the drug sensitivity score worked out at 0. The “absolute EC50 for viability” value in test [2] is over 1000 nM.

`Cn1cc(CNCC2CCN(c3ncc(C(=O)NO)cn3)CC2)c2ccccc21` [Quisinostat] came in with a drug sensitivity score in test [1] of 8.3. For the same molecule, the “absolute EC50 for viability” value in test [2] worked out at 181 nM.

In the case of `Cc1cc(C(C)Nc2ccccc2)c2nc(N3CCOCC3)cc(=O)n2c1` (stereo not given) [TGX-221], in test [1], the drug sensitivity score was 0.3. Moreover, the “absolute EC50 for viability” value in test [2] was over 10000 nM.

Consider `CC(=O)[C@]1(O)Cc2c(O)c3c(c(O)c2[C@@H](O[C@H]2C[C@H](N)[C@H](O)[C@H](C)O2)C1)C(=O)c1ccccc1C3=O` [Idarubicin], for which the drug sensitivity score in test [1] was determined as 6.6. Also, the “absolute EC50 for viability” value in test [2] came out at 233 nM.

`CN1CCN(C(=O)c2ccc3cc(CCNc4ncnc5ccc(C#N)cc45)ccc3c2)CC1` [Senexin B] gave a drug sensitivity score in test [1] of 0.3. Further, in test [2], the “absolute EC50 for viability” value was over 1000 nM.

For `CNC(=O)c1ccccc1Nc1cc(Nc2ccc(N3CCOCC3)cc2OC)ncc1C(F)(F)F` [VS-4718], the drug sensitivity score in test [1] was 5.6. The “absolute EC50 for viability” value in test [2] is over 10000 nM.

Molecule `CN(C)Cc1c(C(=O)NCCOc2ccc(C(=O)NO)cc2)oc2ccccc12` [Abexinostat] registered a drug sensitivity score in test [1] of 10.1. In addition, the “absolute EC50 for viability” value in test [2] came to 1280 nM.

Take `CC(C)(C#N)c1cc(Cn2cncn2)cc(C(C)(C)C#N)c1` [Anastrozole]: in test [1], the drug sensitivity score amounted to 0. In addition, the “absolute EC50 for viability” value in test [2] was over 10000 nM.

Molecule `COc1cc2c(NC3CCN(C(C)C)CC3)nc(C3CCCCC3)nc2cc1OCCCN1CCCC1` [UNC0638] displayed a drug sensitivity score in test [1] of 5.4. Moreover, in test [2], the “absolute EC50 for viability” value stood at 3290 nM.

Consider `Cc1cn(-c2cc(NC(=O)c3ccc(C)c(Nc4nccc(-c5cccnc5)n4)c3)cc(C(F)(F)F)c2)cn1` [Nilotinib], for which the drug sensitivity score in test [1] is 0. Moreover, the “absolute EC50 for viability” value in test [2] is over 10000 nM.

Consider `NC[C@@](O)(c1ccc(Cl)cc1)c1ccc(-c2cn[nH]c2)cc1`, for which, in test [1], the drug sensitivity score came to 3.3. For the same molecule, the “absolute EC50 for viability” value in test [2] was over 10000 nM.
